Where two headings read alike, the source gives them in different places.
Experiments:
Full 24-h PK profile = format: in vivo, mice; settings: 24-h profile; for Brain AUC / AUC / half-life: 7 time points; for AUC / half-life / bioavailability: mouse, in vivo; for AUC: read-out: Blood AUC; for bioavailability: read-out: Blood Bioavailability
Method: Based on the 2-time-point screen results, a full 24-h PK profile has been obtained for compounds 13 and 14. In these experiments, the blood and brain levels were measured at 7 time points—0.3, 0.6, 1, 2, 4, 8, and 24 h. Data for 1 are given for reference.

Aβ42-induced toxicity = assay: Inhibition of Aβ42 toxicity in differentiated PC-12 cells (MTT/LDH); format: cell-based, rat; settings: Rattus norvegicus, PC-12, read-out: Inhibition of Aβ42 toxicity, IC50 (MTT)
Method: (§1) The highest concentration tested was 100 μM. Non-toxic compounds then were tested for their ability to inhibit the toxicity of 10 μM Aβ42 in the same assay. The parent compound 1 was used as a control in both cases.

ZIKV strain MR766 = assay: ZIKV infectivity (MTT) assay on Vero E6 cells; format: cell-based, Zika virus
Method: FIG. 2, panels A and B, illustrates the results of a ZIKV infectivity (MTT) assay with the new molecular tweezers on Vero E6 cells. […] After 3-4 days, the ZIKV induced cytopathic effect was quantified using the MTT assay.
20-μl of MTT solution (5 mg/ml in PBS) were added to 200 μl cells. Following a 3-h incubation at 37° C., cell-free supernatants were discarded and formazan crystals were dissolved in 100 μl of a 1:2 mixture of dimethyl sulfoxide and ethanol. Absorption was measured at 490 nm and baseline corrected at 650 nm using a VMax Kinetic ELISA microplate reader (Molecular Devices). To determine infection rates, sample values were subtracted from untreated control set to 100%. Error bars are standard deviations of replicates (FIG. 2, panels A and B). […] The selectivity index (SI) (Table 12) is calculated for each compound by dividing its CC50 value by the IC50 value.

RGD = format: binding; settings: fluorometric titration in aqueous buffer at neutral pH; read-out: Dissociation constant Kd, RGD
[1] = tested on: differentiated rat pheochromocytoma (PC-12) cells; assay: Self-toxicity in differentiated PC-12 cells (MTT and/or LDH); settings: MTT and/or LDH assays, highest concentration tested 100 μM
Method: as §1

[2] = CellTiter-Glo cell viability assay on TZM-bl cells; format: cell-based; settings: human, CellTiter-Glo (ATP)
Method: (§2) FIG. 1, panels A and B, illustrates the results of a cell viability assay with the new molecular tweezers. Indicated concentrations of compounds were added to the cells and incubated for 2 days before […]-GLO® assay (Promega) was performed on TZM-bl cells (HIV-1 target cells) (panel A), or on Vero E6 (ZIKV target cells) (panel B). The experiment was performed in triplicates, raw data were normalized to untreated cells. Data represent mean±SD (n=3).
(§3) To determine the maximally tolerated concentrations of these derivatives in cell culture and to exclude cytotoxic effects in viral infectivity assays, a CellTiter-Glo® assay (Promega) was performed. This assay quantifies the amount of intracellular ATP. The compounds were directly added to TZM-bl cells (a HeLa derived HIV-1 reporter cell line TZM-bl; 20,000 cells/well, FIG. 1, panel A) or Vero E6 cells (a Zika virus (=ZIKV) permissive cell line; 12,000 cells/well, FIG. 1, panel B). Cell viability was quantified two days later by measuring ATP levels.

[3] = CellTiter-Glo cell viability assay on Vero E6 cells; format: cell-based; settings: African green monkey, CellTiter-Glo (ATP)
Method: as §2, §3

KAA = format: binding; settings: fluorometric titration in aqueous buffer at neutral pH; read-out: Dissociation constant Kd, KAA
[4] = tested on: enveloped viruses such as HIV-1 and HSV-2; settings: cited from earlier work
[5] = PK screening in mice, three routes, two time points; settings: male, mouse, in vivo
Method: Each compound was administered to the mice at 2 mg/kg intravenously (I.V.), 2 mg/kg subcutaneously (S.C.), or 10 mg/kg orally (P.O.).

CCR5-tropic HIV-1 strain = assay: HIV-1 infectivity assay on TZM-bl cells; format: cell-based
Method: FIG. 3, panels A and B, illustrates the results of an HIV-1 infectivity assay with new tweezers on TZM-bl cells. CR5-tropic HIV-1 strain (20 ng/ml p24 antigen) was incubated for 10 min at 37° C. with indicated concentrations of the different compounds before these mixtures were used to infect TZM-bl cells. Three days later, infection rates were determined by measuring β-galactosidase activity.
Infection rates were determined 3 days post infection by detecting β-galactosidase activity in cellular lysates using the Tropix Gal-Screen kit (Applied Biosystems) and an Orion microplate luminometer (Berthold). Values represent % infection (mean) compared to buffer control (FIG. 3, panels A and B). […] Half-maximal inhibitory concentrations (IC50 values), were calculated. […] The selectivity index (SI) is calculated for each compound by dividing its CC50 value by its IC50 value (Table 12).

[6] = CC50 value divided by IC50 value

O=P(O)(O)Oc1c2c(c(OP(=O)(O)O)c3c1C1CC3c3cc4c(cc31)C1CC4c3ccccc31)C1CC2c2cc3c(cc21)C1CC3c2ccccc21 [Compound 1, CLR01, reference compound]
LogBB (Full 24-h PK profile; I.V.): −3.62
Brain AUC (Full 24-h PK profile; I.V.): 1.63
Brain AUC (Full 24-h PK profile; P.O.): 0
LogBB (Full 24-h PK profile; S.C.): 0.34
AUC (Full 24-h PK profile; iv, I.V.): 6800 ng·h/mL
half-life (Full 24-h PK profile; iv, I.V., read-out: Blood T1/2 (converted)): 1.8 h
half-life (Full 24-h PK profile; iv, I.V., read-out: Brain T1/2 (converted)): 4 h
AUC (Full 24-h PK profile; po, P.O.): 8.94 ng·h/mL
half-life (Full 24-h PK profile; po, P.O., read-out: Blood T1/2 (converted)): 1.3 h
bioavailability (Full 24-h PK profile; po, P.O.): 0.1%
AUC (Full 24-h PK profile; sc, S.C.): 4740 ng·h/mL
half-life (Full 24-h PK profile; sc, S.C., read-out: Blood T1/2 (converted)): 1.05 h
half-life (Full 24-h PK profile; sc, S.C., read-out: Brain T1/2 (converted)): 0.9 h
bioavailability (Full 24-h PK profile; sc, S.C.): 69.7%
IC50 (Aβ42-induced toxicity): 69 µM
SI (Vero E6/ZIKV) (ZIKV strain MR766; [6]): 13
IC50 (ZIKV strain MR766; Zika virus, Vero C1008, read-out: IC50 ZIKV): 46 µM
Kd (RGD): 86 µM
Self-toxicity [1]: Non-toxic
CC50 at 2 days [2]: 964 µM
CC50 at 2 days [3]: 584 µM
Kd (KAA): 30 µM
concentrations required to inhibit enveloped viruses such as HIV-1 and HSV-2 ([4]; Lump et al. (2015) eLife, 4: e05397): median micromolar range
antiviral activity in the presence of serum ([4]; Rocker et al. (2018) Antiviral Res. 152: 26-35): inhibited
bioavailability at 40 min ([5]; 2 mg/kg): 101%
bioavailability at 4 h ([5]; 2 mg/kg): 86.6%
bioavailability at 40 min ([5]; 10 mg/kg): 0.5%
bioavailability at 4 h ([5]; 10 mg/kg): 0%
Kp at 40 min ([5]; iv, 2 mg/kg): 0
Kp at 4 h ([5]; iv, 2 mg/kg): 0.002
Kp at 40 min ([5]; po, 10 mg/kg): 0
Kp at 4 h ([5]; po, 10 mg/kg): 0
Kp at 40 min ([5]; sc, 2 mg/kg): 0
Kp at 4 h ([5]; sc, 2 mg/kg): 0
SI (TZM-bl/HIV-1) (CCR5-tropic HIV-1 strain; [6]): 26
IC50 (CCR5-tropic HIV-1 strain; Human immunodeficiency virus 1, TZM-bl, read-out: IC50 HIV-1): 37 µM
